What was measured:
Alternaria solani = assay: Alternaria test (tomato)/preventive; format: in vivo; conditions: 500 ppm, preventive, evaluated 7 days after inoculation
Sphaerotheca fuliginea = assay: Sphaerotheca test (cucumber)/preventive; format: in vivo; conditions: 500 ppm, preventive, evaluated 7 days after inoculation
[1] = logP by HPLC on reversed-phase column (EEC Directive 79/831 Annex V.A8); conditions: EEC Directive 79/831 Annex V.A8
Puccinia triticina = assay: Puccinia triticina-test (wheat)/preventive; format: in vivo; conditions: 500 ppm, preventive, evaluated 8 days after inoculation
Pyrenophora teres = assay: Pyrenophora teres-test (barley)/preventive; format: in vivo; conditions: 500 ppm, preventive, evaluated 8 days after inoculation
[2] = test system: Fusarium nivale (var. majus); assay: Fusarium nivale (var. majus)-test (wheat)/preventive; conditions: 500 ppm, preventive, evaluated 5 days after inoculation
Venturia inaequalis = assay: Venturia test (apples)/preventive; conditions: 100 ppm, preventive, evaluated 10 days after inoculation
Uromyces appendiculatus = conditions: 100 ppm, beans, preventive, evaluated 10 days after inoculation
[3] = HPLC on reversed-phase column (C 18)
[4] = HPLC on a reversed-phase column (C 18)

| Structure (SMILES) | logP [1, 3] | logP [1, 4] | Efficacy (Alternaria solani) [%] | Efficacy (Sphaerotheca fuliginea) [%] | Efficacy (Puccinia triticina) [%] | Efficacy (Pyrenophora teres) [%] | Efficacy [2] [%] | Efficacy (Venturia inaequalis) [%] | Efficacy (Uromyces appendiculatus) [%] |
| --- | --- | --- | --- | --- | --- | --- | --- | --- | --- |
| Cn1nc(C(F)F)c(C(=O)Nc2ccccc2C(C)(C)C)c1F [Example 3] | 2.98 |  | 94 | 98 |  |  |  |  |  |
| Cn1nc(C(F)F)c(C(=O)Nc2ccccc2OC(F)(F)C(F)C(F)(F)F)c1F (stereo not drawn) [Example 32] | 3.48 |  | 95 |  |  |  |  |  |  |
| Cn1nc(C(F)F)c(C(=O)Nc2cccc3c2CCC3)c1F [Example 54] | 2.94 |  | 70 |  |  |  |  |  |  |
| Cn1nc(C(F)F)c(C(=O)Nc2cccc3c2CCC3)c1Cl [Example 55] | 3.19 |  |  |  | 100 | 71 | 83 |  |  |
| CC1CC(C)(C)c2cccc(NC(=O)c3c(C(F)F)nn(C)c3Cl)c21 (stereo not drawn) [Example 65] | 4.04 |  | 80 |  | 100 | 100 | 86 | 98 | 100 |
| Cn1nc(C(F)F)c(C(=O)Nc2ccc(F)cc2-c2ccc(F)cc2)c1F [Example 77] | 3.16 |  | 95 | 95 |  |  |  |  |  |
| Cn1nc(C(F)F)c(C(=O)Nc2ccc(F)cc2-c2ccc(F)cc2)c1Cl [Example 79] | 3.41 |  | 90 | 95 |  |  |  |  |  |
| Cn1nc(C(F)F)c(C(=O)Nc2ccccc2-c2cc(F)c(F)cc2F)c1F [Example 107] | 3.25 |  | 100 | 88 |  |  |  |  |  |
| CC(C)Oc1cccc(NC(=O)c2c(C(F)F)nn(C)c2Cl)c1 [Example 169] | 2.98 |  |  |  | 100 | 100 | 71 | 96 | 100 |
| CCCOc1cccc(NC(=O)c2c(C(F)F)nn(C)c2Cl)c1 [Example 174] | 3.25 |  | 70 |  |  |  |  |  |  |
| C=C(C)COc1cccc(NC(=O)c2c(C(F)F)nn(C)c2F)c1 [Example 176] | 3.15 |  |  |  | 100 | 100 | 100 |  |  |
| Cn1nc(C(F)F)c(C(=O)Nc2cccc(OC(F)(F)F)c2)c1Cl [Example 181] | 3.25 |  |  |  |  |  |  |  | 100 |
| Cn1nc(C(F)F)c(C(=O)Nc2cccc(OC(F)(F)C(F)F)c2)c1Cl [Example 188] | 3.09 |  |  |  | 100 | 92 |  |  | 100 |
| Cc1cc(Cl)ccc1Oc1cccc(NC(=O)c2c(C(F)F)nn(C)c2F)c1 [Example 254] |  | 4.19 | 70 |  |  |  |  |  |  |
| Cn1nc(C(F)F)c(C(=O)Nc2cccc(Oc3cccc(C(F)(F)F)c3)c2)c1Cl [Example 255] |  | 3.89 |  |  | 94 |  | 100 |  | 73 |

The next lines start with results.

| logP [1, 3] | logP [1, 4] | Structure (SMILES) | Efficacy (Alternaria solani) [%] | Efficacy (Sphaerotheca fuliginea) [%] | Efficacy (Puccinia triticina) [%] | Efficacy (Pyrenophora teres) [%] | Efficacy [2] [%] | Efficacy (Venturia inaequalis) [%] | Efficacy (Uromyces appendiculatus) [%] |
| --- | --- | --- | --- | --- | --- | --- | --- | --- | --- |
| 3.25 |  | Cn1nc(C(F)F)c(C(=O)Nc2ccccc2-c2ccccc2)c1F [Example 73] | 90 | 75 |  |  |  |  |  |
| 3.59 |  | Cn1nc(C(F)F)c(C(=O)Nc2ccccc2-c2ccccc2)c1Cl [Example 74] | 78 |  |  |  |  |  |  |
| 3.74 |  | Cc1ccccc1-c1ccccc1NC(=O)c1c(C(F)F)nn(C)c1F [Example 75] | 94 |  | 70 | 100 |  |  |  |
| 3.40 |  | Cn1nc(C(F)F)c(C(=O)Nc2ccccc2-c2ccc(F)cc2)c1Cl [Example 78] | 90 | 75 |  |  |  |  |  |
| 3.20 |  | Cn1nc(C(F)F)c(C(=O)Nc2ccccc2-c2ccc(F)cc2)c1F [Example 80] | 95 | 98 |  |  |  |  |  |
| 3.87 |  | Cn1nc(C(F)F)c(C(=O)Nc2ccccc2-c2cccc(Cl)c2)c1Cl [Example 87] | 95 | 95 |  |  |  |  |  |
| 3.96 |  | Cn1nc(C(F)F)c(C(=S)Nc2ccccc2-c2ccc(Br)cc2)c1Cl [Example 141] | 70 | 95 |  |  |  |  |  |

— patent US9375004B2 (Bayer Intellectual Property GmbH, priority 2010, dated 2016)
